This passage reports solubility, EC50 and Activity results from ChEMBL document CHEMBL4020749, “Phenanthridin-6-one derivatives as the first class of non-steroidal pharmacological chaperones for Niemann-Pick disease type C1 protein” (Bioorg Med Chem Lett, 2017).

Active and inactive are the calls of the source. The rule behind the calls is not given here. Bounds are passed on as bounds.

Data set [1] is described as follows: Solubility of the compound in DMEM medium at 10 uM. The format is physicochemical.
Data set [2] has as its target NPC intracellular cholesterol transporter 1 (Homo sapiens, UniProt O15118, I1061T). In words: (§1) Chaperone activity at FLAG/GFP-tagged NPC1 I1061T mutant (unknown origin) expressed in HEK293 cells assessed as increase in localization of protein mutant in late endosomes after 24 hrs by Hoechst 33342 staining based fluorescence microscopic analysis. The format is cell-based.

Data set [3] concerns T1, NPC intracellular cholesterol transporter 1 (Homo sapiens), O15118 [I1061T].
T1 sequence (whole entry): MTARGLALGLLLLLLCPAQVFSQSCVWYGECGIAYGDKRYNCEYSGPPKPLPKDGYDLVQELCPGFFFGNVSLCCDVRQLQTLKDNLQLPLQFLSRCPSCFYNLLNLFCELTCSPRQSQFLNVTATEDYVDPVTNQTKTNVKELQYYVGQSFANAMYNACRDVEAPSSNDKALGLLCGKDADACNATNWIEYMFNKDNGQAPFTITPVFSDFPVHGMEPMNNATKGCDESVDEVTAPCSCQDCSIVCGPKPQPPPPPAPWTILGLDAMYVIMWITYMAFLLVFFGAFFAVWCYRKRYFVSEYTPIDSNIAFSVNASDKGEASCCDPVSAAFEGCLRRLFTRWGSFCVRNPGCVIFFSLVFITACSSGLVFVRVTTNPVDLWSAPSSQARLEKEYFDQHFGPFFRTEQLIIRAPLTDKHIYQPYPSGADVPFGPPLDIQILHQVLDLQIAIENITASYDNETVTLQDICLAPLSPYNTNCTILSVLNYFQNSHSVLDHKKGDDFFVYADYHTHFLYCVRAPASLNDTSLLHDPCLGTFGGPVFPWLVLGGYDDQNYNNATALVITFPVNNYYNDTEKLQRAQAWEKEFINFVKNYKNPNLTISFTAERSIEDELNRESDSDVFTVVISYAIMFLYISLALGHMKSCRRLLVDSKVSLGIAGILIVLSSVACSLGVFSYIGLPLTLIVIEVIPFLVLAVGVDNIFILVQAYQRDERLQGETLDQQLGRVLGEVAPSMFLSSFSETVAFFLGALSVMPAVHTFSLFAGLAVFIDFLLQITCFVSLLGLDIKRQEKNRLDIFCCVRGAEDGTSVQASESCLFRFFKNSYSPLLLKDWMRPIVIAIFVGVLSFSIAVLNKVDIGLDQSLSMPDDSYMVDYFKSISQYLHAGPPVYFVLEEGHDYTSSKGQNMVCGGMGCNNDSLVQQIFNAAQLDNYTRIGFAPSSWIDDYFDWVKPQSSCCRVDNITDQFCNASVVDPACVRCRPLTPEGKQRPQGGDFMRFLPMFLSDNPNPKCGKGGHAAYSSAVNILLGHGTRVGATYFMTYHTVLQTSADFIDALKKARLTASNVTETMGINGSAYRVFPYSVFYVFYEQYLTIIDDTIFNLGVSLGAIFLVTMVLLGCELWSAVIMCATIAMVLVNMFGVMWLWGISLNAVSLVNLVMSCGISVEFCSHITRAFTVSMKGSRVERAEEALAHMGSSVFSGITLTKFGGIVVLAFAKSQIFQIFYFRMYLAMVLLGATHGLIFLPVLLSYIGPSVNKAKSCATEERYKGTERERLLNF
In words: Chaperone activity at FLAG/GFP-tagged NPC1 I1061T mutant (unknown origin) expressed in HEK293 cells assessed as increase in localization of protein mutant in late endosomes at 30 uM after 24 hrs by Hoechst 33342 staining based fluorescence microscopic analysis. It is filed as cell-based.

Data set [4] can be described thus: Solubility of the compound in DMEM medium at 30 uM. It is filed as physicochemical.
The test system of data set [5] is HEK293. In words: Chaperone activity at FLAG/GFP-tagged human NPC1L1 L1072T/I1168T double mutant expressed in HEK293 cells assessed as localization of protein mutant in plasma membrane at 3 uM after 24 hrs fluorescence microscopic analysis. The format is cell-based.
Data set [6] concerns T1, NPC intracellular cholesterol transporter 1 (Homo sapiens), O15118 [I1061T]. In words: Stabilization of FLAG/GFP-tagged NPC1 I1061T mutant (unknown origin) expressed in HEK293 cells assessed as up regulation of NPC1 I1061T mutant expression after 24 hrs by Hoechst 33342 staining based fluorescence microscopic analysis. It is filed as cell-based.
The test system is the same in data set [7]. The data set is described as §1. The format is cell-based.
In data set [8] the test system is HEK293. In words: Chaperone activity at FLAG/GFP-tagged human NPC1L1 L1072T/I1168T double mutant expressed in HEK293 cells assessed as localization of protein mutant in plasma membrane at 10 uM after 24 hrs fluorescence microscopic analysis. It is filed as cell-based.
Data set [9] concerns HEK293. In words: Stabilization of FLAG/GFP-tagged human NPC1L1 L1072T/I1168T double mutant expressed in HEK293 cells assessed as up regulation of NPC1L1 L1072T/I1168T double mutant expression at 3 to 30 uM after 24 hrs fluorescence microscopic analysis. It is filed as cell-based.
In data set [10] the test system is T1, NPC intracellular cholesterol transporter 1 (Homo sapiens), O15118 [I1061T]. In words: Chaperone activity at FLAG/GFP-tagged NPC1 I1061T mutant (unknown origin) expressed in HEK293 cells assessed as increase in localization of protein mutant in late endosomes at 10 uM after 24 hrs by Hoechst 33342 staining based fluorescence microscopic analysis. The format is cell-based.

Data set [11] shares this test system. In words: Chaperone activity at FLAG/GFP-tagged NPC1 I1061T mutant (unknown origin) expressed in HEK293 cells assessed as increase in localization of protein mutant in late endosomes at 1 uM after 24 hrs by Hoechst 33342 staining based fluorescence microscopic analysis. The format is cell-based.

In the case of `CCCCCCCn1c(=O)c2ccccc2c2cc(C(N)=O)ccc21`, the solubility entry in data set [1] is reported as “Insoluble”. The EC50 in data set [2] (read-out: EC50) was over 3 µM.

`CCCCNC(=O)c1ccccc1-c1cccc(C(N)=O)c1`: the outcome in data set [3] was inactive.

As to `CCCCn1c(=O)c2ccccc2c2cc(O)ccc21`, the EC50 in data set [2] (read-out: EC50) was over 30 µM.

In the case of `CCCCN1C(=O)CCc2cc(C(N)=O)ccc21`, the outcome in data set [3] was inactive.

As for `O=S(=O)(c1ccccc1)N(CC(F)(F)F)c1ccc(C(O)(C(F)(F)F)C(F)(F)F)cc1`, in [3], the outcome was inactive.

For the compound `CCCCn1c(=O)c2ccccc2c2cc(C(=O)N3CCCCC3)ccc21`, in [3], the result was inactive.

`CCCCn1c(=O)c2ccccc2c2cc(C(=O)NC)ccc21`: the EC50 in data set [2] (read-out: EC50) is over 30 µM.

Consider `CCCCn1c(=O)c2ccccc2c2cc(C(=O)N3CCOCC3)ccc21`, for which the outcome in [3] was inactive.

Turning to `CCCCn1c(=O)c2ccccc2c2cc(C(C)O)ccc21` (stereo not given), the EC50 in data set [2] (read-out: EC50) was over 30 µM.

`CCCCn1c(=O)c2ccccc2c2cc(C(N)=O)ccc21`: the EC50 in data set [2] (read-out: EC50) turned out to be 11 µM.

On to `NC(=O)c1ccc2c(c1)c1ccccc1c(=O)n2CC1CCCCC1`, for which the EC50 in [2] (read-out: EC50) came out at 3.6 µM. Also, the solubility result in data set [4] is given as “Insoluble”.

With `C[C@H](CCC(=O)N(C)C)[C@H]1CC[C@H]2[C@@H]3CC=C4C[C@@H](OC(=O)N(CCO)CCO)CC[C@]4(C)[C@H]3CC[C@]12C`, the result in the data set on HEK293 [5] was Active.

With `CCCCn1c(=O)c2ccccc2c2cc(F)ccc21`, the result in data set [3] was inactive.

For the compound `CCCCN1C(=O)c2ccccc2Oc2cc(C(N)=O)ccc21`, the result in [3] was inactive.

In the case of `CCCCn1c(=O)c2ccccc2c2cc(C(F)(F)F)ccc21`, the result in data set [3] was inactive.

With `CCCCCn1c(=O)c2ccccc2c2cc(C(N)=O)ccc21`, the Activity result in data set [6] and in data set [7] was “Dose-dependent effect” in each case. Besides, the EC50 in data set [2] (read-out: EC50) came to 4.2 µM. Further, the outcome with HEK293 [8] and in the data set with HEK293 [9] was inactive.

Take `CCCCn1c(=O)c2ccccc2c2cc(C(=O)N(C)C)ccc21`: in data set [2] (read-out: EC50), the EC50 was over 30 µM.

For the compound `CCCCn1c(=O)c2c(c3cc(C(N)=O)ccc31)CCCCC2`, in data set [2] (read-out: EC50), the EC50 came out at 13 µM.

Turning to `CCCCn1c(=O)c2c(c3cc(C(N)=O)ccc31)CCCCCC2`, the outcome in [10] was inactive. Besides, the solubility result in data set [4] is “Insoluble”.

For the compound `Cn1c(=O)c2ccccc2c2cc(C(N)=O)ccc21`, in data set [2] (read-out: EC50), the EC50 is over 30 µM.

Consider `CCCCn1c(=O)c2ccccc2c2cc(OC(=O)N3CCOCC3)ccc21`, for which, in data set [3], the result was inactive.

Take `CCCCn1c(=O)c2ccccc2c2cc(CO)ccc21`: the EC50 in [2] (read-out: EC50) is over 30 µM.

On to `CCCCn1c(=O)c2c(c3cc(C(N)=O)ccc31)CCC2`, for which, in data set [3], the result was inactive.

As for `CCCC(=O)N1CC2=C(CCCC2)c2cc(C(N)=O)ccc21`, the result in data set [3] was inactive.

Take `CC(C)CCC[C@@H](C)[C@H]1CC[C@H]2[C@@H]3C[C@@H](O)[C@@]4(O)C[C@@H](OCC(=O)N5CCOCC5)CC[C@]4(C)[C@H]3CC[C@]12C`: the outcome in data set [11] was Active. Moreover, the EC50 in data set [2] (read-out: EC50) was determined as 0.15 µM.

Turning to `CCCCn1c(=O)c2ccccc2c2cc(C(C)=O)ccc21`, the EC50 in [2] (read-out: EC50) was over 30 µM.

With `C[Si](C)(C)CCOCn1c(=O)c2ccccc2c2cc(C(N)=O)ccc21`, the EC50 in data set [2] (read-out: EC50) amounted to 16 µM.

For `CC(C)n1c(=O)c2ccccc2c2cc(C(N)=O)ccc21`, the EC50 result in [2] is listed as “Not Active”.

As for `CCCCn1c(=O)c2ccccc2c2cc(C(=O)NC(C)(C)C)ccc21`, the result in data set [3] was inactive.

Take `CCCCn1c(=O)c2ccccc2c2cc(NC(N)=O)ccc21`: the result in data set [3] was inactive.

As to `NC(=O)c1ccc2c(c1)c1ccccc1c(=O)n2CCO`, the EC50 result in data set [2] is on record as “Not Active”.

For the compound `CCCCn1c(=O)c2ccccc2c2cc(C(=O)N(CCO)CCO)ccc21`, the EC50 in [2] (read-out: EC50) is over 30 µM.

In the case of `CCCCn1c(=O)c2ccccc2c2ccccc21`, in data set [3], the result was inactive.

Turning to `CCCCn1c(=O)c2ccccc2c2cc(NS(C)(=O)=O)ccc21`, the EC50 in data set [2] (read-out: EC50) is 14 µM.

Regarding `CCCCn1c(=O)c2ccccc2c2cc(C)ccc21`, in data set [3], the outcome was inactive.

As to `O=C(O)Cc1cccc(OCCCN(Cc2cccc(C(F)(F)F)c2Cl)CC(c2ccccc2)c2ccccc2)c1`, the outcome in [3] was inactive.

Consider `CCCCn1c(=O)c2ccccc2c2cc(C(=O)N(CC)CC)ccc21`, for which, in data set [3], the result was inactive.

With `CCCCn1c(=O)c2ccccc2c2cc(N)ccc21`, the outcome in [3] was inactive.

For `CCCCCn1c(=O)c2ccccc2c2ccc(C(N)=O)cc21`, the solubility entry in [1] is “Insoluble”. Moreover, the EC50 result in data set [2] is given as “Not Active”.

As to `CCCCCCn1c(=O)c2ccccc2c2cc(C(N)=O)ccc21`, the solubility entry in data set [1] is “Insoluble”. Further, the EC50 in data set [2] (read-out: EC50) is over 3 µM.

In the case of `CCCCCn1c(=O)c2ccccc2c2c(C(N)=O)cccc21`, the solubility result in [1] was “Insoluble”. In data set [2], the EC50 result is “Not Active”.

In the case of `CCCCn1c(=O)c2c(c3cc(C(N)=O)ccc31)CCCC2`, the EC50 in data set [2] (read-out: EC50) is 30 µM.

Turning to `CCCCCn1c(=O)c2ccccc2c2cccc(C(N)=O)c21`, the EC50 result in data set [2] is recorded as “Not Active”. Further, the solubility result in [4] is on record as “Insoluble”.

With `CCCCn1c(=O)c2ccccc2c2cc(C(=O)O)ccc21`, the outcome in [3] was inactive.

Consider `CCn1c(=O)c2ccccc2c2cc(C(N)=O)ccc21`, for which the EC50 in data set [2] (read-out: EC50) was over 30 µM.

Take `CCCCn1c(=O)c2ccccc2c2cc(C(=O)NC3CCCC3)ccc21`: the result in data set [3] was inactive.

For `CCCCn1c(=O)c2ccccc2c2cc(C(=O)NC3CCCCC3)ccc21`, in data set [3], the outcome was inactive.

With `C=CCn1c(=O)c2ccccc2c2cc(C(N)=O)ccc21`, the EC50 in data set [2] (read-out: EC50) was over 30 µM.

As to `CCCCn1c(=O)c2ccccc2c2cc(C(=O)NCc3ccccc3)ccc21`, the outcome in data set [3] was inactive.

For the compound `CCCCn1c(=O)c2ccccc2c2cc(C(O)(C(F)(F)F)C(F)(F)F)ccc21`, in data set [3], the outcome was inactive.

On to `CCCCn1c(=O)c2ccccc2c2cc(NC(C)=O)ccc21`, for which the EC50 in data set [2] (read-out: EC50) is 14 µM.

As for `CCCCn1c(=O)c2ccccc2c2cc(N(C)C(C)=O)ccc21`, in data set [3], the outcome was inactive.

With `CCCn1c(=O)c2ccccc2c2cc(C(N)=O)ccc21`, the EC50 in [2] (read-out: EC50) is 19 µM.

For the compound `CCCCn1c(=O)c2ccccc2c2cc(NC(=O)C(F)(F)F)ccc21`, in [3], the result was inactive.

Take `CCCCn1c(=O)c2ccccc2c2cc(C(=O)NC3CC3)ccc21`: the outcome in data set [3] was inactive.

`CCCCn1c(=O)c2ccccc2c2cc(C(=O)NC(C)C)ccc21`: the outcome in data set [3] was inactive.

Take `COCCn1c(=O)c2ccccc2c2cc(C(N)=O)ccc21`: the EC50 result in data set [2] is “Not Active”.

`CCCCn1c(=O)c2ccccc2c2cc(C(=O)N3CCCC3)ccc21`: in [3], the result was inactive.
